Measured values reported in patent publication US11051515B2, “3-acyl-benzamides and their use as herbicides” (Bayer Aktiengesellschaft, priority 2017, dated 2021).

Columns and labels:
[1] = system: LOLMU; assay: Post-emergence action against LOLMU; format: in vivo, Lolium multiflorum; conditions: dosage 80 g/ha, visual assessment about 3 weeks after treatment vs untreated controls
Experimental: Seeds of monocotyledonous and dicotyledonous weed and crop plants are laid out in sandy loam soil in wood-fiber pots, covered with soil and cultivated in a greenhouse under good growth conditions. 2 to 3 weeks after sowing, the test plants are treated at the one-leaf stage. The compounds of the invention, formulated in the form of wettable powders (WP) or as emulsion concentrates (EC), are then sprayed onto the green parts of the plants in the form of an aqueous suspension or emulsion at a water application rate equating to […], with addition of 0.2% wetting agent. After the test plants have been left to stand in the greenhouse under optimal growth conditions for about 3 weeks, the action of the preparations is assessed visually in comparison to untreated controls (herbicidal action in percent (%): 100% activity=the plants have died, 0% activity=like control plants). […] At the same time, inventive compounds leave Gramineae crops such as barley, wheat, rye, millet/Sorghum, corn or rice virtually undamaged when applied post-emergence, even at high active ingredient dosages. In addition, some substances are also harmless to dicotyledonous crops such as soya, cotton, oilseed rape, sugar beet or potatoes. Some of the compounds according to the invention have high selectivity and are therefore suitable for controlling unwanted vegetation in agricultural crops by the post-emergence method. The data of Tables B18 to B34 below illustrate, in an exemplary manner, the […] herbicidal action of the compounds according to the invention, the herbicidal activity being stated in percent.

[2] = system: CYPES; assay: Post-emergence action against CYPES; format: in vivo, Cyperus esculentus; conditions: post-emergence, dosage 80 g/ha, visual assessment about 3 weeks after treatment vs untreated controls
How it was run: (§1)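 Weeds grown in sandy loam in greenhouse, treated at one-leaf stage (2–3 weeks after sowing) with WP or EC formulations sprayed as aqueous suspension/emulsion at 600 to […] water with 0.2% wetting agent. Visual rating after about 3 weeks versus untreated controls, as % herbicidal action (100% = plants dead, 0% = like control).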

[3] = system: POLCO; assay: Pre-emergence action against POLCO; format: in vivo, Polygonum convolvulus; conditions: Dosage 320 g/ha, pre-emergence
How it was run: (§2)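 Seeds sown in sandy loam in wood-fiber pots and covered with soil. Greenhouse growth; visual damage scored after 3 weeks versus untreated controls (100% = dead, 0% = like control).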

[4] = system: ABUTH; assay: Post-emergence action against ABUTH; format: in vivo, Abutilon theophrasti; conditions: post-emergence, dosage 80 g/ha, visual assessment about 3 weeks after treatment vs untreated controls
How it was run: as §1

[5] = system: AVEFA; assay: Pre-emergence action against AVEFA; format: in vivo, Avena fatua; conditions: dosage 320 g/ha, scored visually after 3 weeks vs untreated controls
How it was run: as §2

[6] = system: LOLMU; assay: Pre-emergence action against LOLMU; format: in vivo, Lolium multiflorum; conditions: dosage 320 g/ha, scored visually after 3 weeks vs untreated controls
How it was run: as §2

[7] = system: MATIN; assay: Post-emergence action against MATIN; format: in vivo, Matricaria inodora; conditions: post-emergence, dosage 80 g/ha, visual assessment about 3 weeks after treatment vs untreated controls
How it was run: as §1

[8] = system: AMARE; assay: Pre-emergence action against AMARE; format: in vivo, Amaranthus retroflexus; conditions: pre-emergence, dosage 320 g/ha, scored visually after 3 weeks vs untreated controls
How it was run: as §2

[9] = system: ABUTH; assay: Pre-emergence action against ABUTH; format: in vivo, Abutilon theophrasti; conditions: pre-emergence, dosage 320 g/ha, scored visually after 3 weeks vs untreated controls
How it was run: as §2

[10] = system: ECHCG; assay: Pre-emergence action against ECHCG; format: in vivo, Echinochloa crus-galli; conditions: pre-emergence, dosage 320 g/ha, scored visually after 3 weeks vs untreated controls
How it was run: as §2

[11] = system: CYPES; assay: Pre-emergence action against CYPES; format: in vivo, Cyperus esculentus; conditions: pre-emergence, dosage 320 g/ha, scored visually after 3 weeks vs untreated controls
How it was run: as §2

[12] = system: VIOTR; assay: Pre-emergence action against VIOTR; format: in vivo, Viola tricolor; conditions: Dosage 320 g/ha, pre-emergence
How it was run: as §2

[13] = system: AVEFA; assay: Post-emergence action against AVEFA; format: in vivo, Avena fatua; conditions: Avena fatua, 504 h; post-emergence, dosage 80 g/ha, visual assessment about 3 weeks after treatment vs untreated controls; read-out: Post-emergence action against AVEFA (herbicidal action in percent)
How it was run: as §1

[14] = system: STEME; assay: Post-emergence action against STEME; format: in vivo, Stellaria media; conditions: post-emergence, dosage 80 g/ha
How it was run: as §1

[15] = system: SETVI; assay: Pre-emergence action against SETVI; format: in vivo, Setaria viridis; conditions: pre-emergence, dosage 320 g/ha, scored visually after 3 weeks vs untreated controls
How it was run: as §2

[16] = system: VIOTR; assay: Post-emergence action against VIOTR; format: in vivo, Viola tricolor; conditions: post-emergence, dosage 80 g/ha
How it was run: as §1

[17] = system: VERPE; assay: Post-emergence action against VERPE; format: in vivo, Veronica persica; conditions: dosage 80 g/ha
How it was run: as §1

[18] = system: ALOMY; assay: Pre-emergence action against ALOMY; format: in vivo, Alopecurus myosuroides; conditions: dosage 320 g/ha, pre-emergence, scored visually after 3 weeks vs untreated controls, 100% = plants have died, 0% = like control plants
How it was run: as §2

[19] = system: POLCO; assay: Post-emergence action against POLCO; format: in vivo, Polygonum convolvulus; conditions: Fallopia convolvulus, 504 h; post-emergence, dosage 80 g/ha
How it was run: as §1

[20] = system: MATIN; assay: Pre-emergence action against MATIN; format: in vivo, Matricaria inodora; conditions: Dosage 320 g/ha, pre-emergence
How it was run: as §2

[21] = system: SETVI; assay: Post-emergence action against SETVI; format: in vivo, Setaria viridis; conditions: post-emergence, dosage 80 g/ha, visual assessment about 3 weeks after treatment vs untreated controls
How it was run: as §1

[22] = system: PHBPU; assay: Post-emergence action against PHBPU; format: in vivo, Pharbitis purpurea; conditions: post-emergence, dosage 80 g/ha
How it was run: as §1

[23] = system: VERPE; assay: Pre-emergence action against VERPE; format: in vivo, Veronica persica; conditions: Dosage 320 g/ha, pre-emergence
How it was run: as §2

[24] = system: STEME; assay: Pre-emergence action against STEME; format: in vivo, Stellaria media; conditions: Dosage 320 g/ha, pre-emergence
How it was run: as §2

[25] = system: ECHCG; assay: Post-emergence action against ECHCG; format: in vivo, Echinochloa crus-galli; conditions: post-emergence, dosage 80 g/ha, visual assessment about 3 weeks after treatment vs untreated controls
How it was run: as §1

[26] = system: AMARE; assay: Post-emergence action against AMARE; format: in vivo, Amaranthus retroflexus; conditions: post-emergence, dosage 80 g/ha, visual assessment about 3 weeks after treatment vs untreated controls
How it was run: as §1

CC(=O)c1c(C(F)(F)F)ccc(C(=O)Nc2nnnn2C)c1Br [1-195]
pest or weed control at 80 g/ha ([1]; Lolium multiflorum, 504 h, read-out: Post-emergence action against LOLMU (herbicidal action in percent)): 90% | pest or weed control at 80 g/ha ([2]; Cyperus esculentus, 504 h, read-out: Post-emergence action against CYPES (herbicidal action in percent)): 80% | pest or weed control at 320 g/ha ([3]; Fallopia convolvulus, 504 h): 80% | pest or weed control at 80 g/ha ([4]; Abutilon theophrasti, 504 h, read-out: Post-emergence action against ABUTH (herbicidal action in percent)): 80% | pest or weed control at 320 g/ha ([5]; Avena fatua, 504 h, read-out: Pre-emergence action against AVEFA (herbicidal activity)): 100% | pest or weed control at 320 g/ha ([6]; Lolium multiflorum, 504 h, read-out: Pre-emergence action against LOLMU (herbicidal activity)): 90% | pest or weed control at 80 g/ha ([7]; Tripleurospermum inodorum, 504 h, read-out: Post-emergence action against MATIN (herbicidal action in percent)): 90% | pest or weed control at 320 g/ha ([8]; Amaranthus retroflexus, 504 h, read-out: Pre-emergence action against AMARE (herbicidal activity)): 100% | pest or weed control at 320 g/ha ([9]; Abutilon theophrasti, 504 h, read-out: Pre-emergence action against ABUTH (herbicidal activity)): 100% | pest or weed control at 320 g/ha ([10]; Echinochloa crus-galli, 504 h, read-out: Pre-emergence action against ECHCG (herbicidal activity)): 100% | pest or weed control at 320 g/ha ([11]; Cyperus esculentus, 504 h, read-out: Pre-emergence action against CYPES (herbicidal activity)): 100% | pest or weed control at 320 g/ha ([12]; Viola tricolor, 504 h): 100% | pest or weed control at 80 g/ha [13]: 80% | pest or weed control at 80 g/ha ([14]; Stellaria media, 504 h): 100% | pest or weed control at 320 g/ha ([15]; Setaria viridis, 504 h, read-out: SETVI (Table B8, pre-emergence herbicidal activity)): 100% | pest or weed control at 80 g/ha ([16]; Viola tricolor, 504 h): 100% | pest or weed control at 80 g/ha ([17]; Veronica persica, 504 h): 80% | pest or weed control at 320 g/ha ([18]; Alopecurus myosuroides, 504 h, read-out: Pre-emergence action against ALOMY (herbicidal activity in percent)): 90% | pest or weed control at 80 g/ha [19]: 90% | pest or weed control at 320 g/ha ([20]; Tripleurospermum inodorum, 504 h): 100% | pest or weed control at 80 g/ha ([21]; Setaria viridis, 504 h, read-out: Post-emergence action against SETVI (herbicidal action in percent)): 90% | pest or weed control at 80 g/ha ([22]; Ipomoea purpurea, 504 h): 90% | pest or weed control at 320 g/ha ([23]; Veronica persica, 504 h): 100% | pest or weed control at 320 g/ha ([24]; Stellaria media, 504 h): 90% | pest or weed control at 80 g/ha ([25]; Echinochloa crus-galli, 504 h, read-out: Post-emergence action against ECHCG (herbicidal action in percent)): 90%

CCn1nnnc1NC(=O)c1ccc(C(F)(F)F)c(C(C)=O)c1C [2-14]
Post-emergence action against LOLMU (herbicidal action in percent) [1]: 80% | Post-emergence action against CYPES (herbicidal action in percent) [2]: 90% | Pre-emergence action against POLCO [3]: 80% | Post-emergence action against ABUTH (herbicidal action in percent) [4]: 100% | Pre-emergence action against AVEFA (herbicidal activity) [5]: 90% | Pre-emergence action against LOLMU (herbicidal activity) [6]: 80% | Post-emergence action against MATIN (herbicidal action in percent) [7]: 100% | Pre-emergence action against AMARE (herbicidal activity) [8]: 100% | Post-emergence action against AMARE (herbicidal action in percent) [26]: 100% | Pre-emergence action against ABUTH (herbicidal activity) [9]: 100% | Pre-emergence action against ECHCG (herbicidal activity) [10]: 100% | Pre-emergence action against CYPES (herbicidal activity) [11]: 90% | Pre-emergence action against VIOTR [12]: 100% | Post-emergence action against STEME [14]: 100 | SETVI (Table B8, pre-emergence herbicidal activity) [15]: 100% | Post-emergence action against VIOTR [16]: 100 | Post-emergence action against VERPE [17]: 80 | Pre-emergence action against ALOMY (herbicidal activity in percent) [18]: 80% | Pre-emergence action against MATIN [20]: 100% | Post-emergence action against SETVI (herbicidal action in percent) [21]: 90% | Post-emergence action against PHBPU [22]: 90 | Pre-emergence action against VERPE [23]: 100% | Pre-emergence action against STEME [24]: 100% | Post-emergence action against ECHCG (herbicidal action in percent) [25]: 100%
